Laboratory results: patent publication US20250345317A1, “New pharmaceutical compounds, methods and uses thereof” (BBIT-THERAPEUTICS, LDA., priority 2020, published 2025)

How the values were obtained:
SK-MEL-5 = assay: Growth inhibition, SRB assay, SK-MEL-5; type: cell-based; conditions: Homo sapiens, SK-MEL-5, wild-type BRCA1/2, 48 hours
Source text: (§1) Table 2 refers to the growth inhibitory effect of COMP, olaparib and cisplatin (CDDP) in a panel of human immortalized breast (T47D, MCF-7, MDA-MB-231, MDA-MB-468, SK-BR-3 and HCC1937), ovarian and endocervical (OCVAR, SKOV-3, […],IGROV-1 and HeLa), pancreatic (PANC-1 and MIAPACA), neuroblastoma (SHSY-5Y), lung (NCI-H460), prostate (VCaP) melanoma (A375 and SK-MEL-5) and glioblastoma (SF-208) cancer cells, immortalized normal MCF10a and HFF1 human cells, and patient-derived ovarian (PD-OVCA #1, #9, #41, #49 and #62) cancer cells. […] Data are mean±SEM (n=5).
(§2) In an embodiment, IC50 values were determined by Sulforhodamine B (SRB) or MTS [3-(4,5-dimethylthiazol-2-yl)-5-(3-carboxymethoxyphenyl)-2-(4-sulfophenyl)-2H-tetrazolium] assay in immortalized and PD-OVCA cells, respectively. Cancer cells were plated in 96-well plates and incubated for 24 hours. Cells were then exposed to serial dilutions of compounds for 48 hours. The solvent DMSO corresponding to the maximum concentration used in these assays (0.025%) was included as control. Results are the mean±S.E.M. of 3-5 independent experiments.

[1] = tested on: IGROV-1 (mutBRCA1 280delA; mutBRCA2 3320del1); assay: Growth inhibition, SRB assay, IGROV-1; type: cell-based, human; conditions: Homo sapiens, IGROV-1, 48 h
Source text: as §1, §2

[2] = tested on: PD-OVCA#1 (Lack of exon 17 in BRCA1); assay: Growth inhibition, MTS assay, PD-OVCA#1; type: cell-based, human; conditions: Homo sapiens, PD-OVCA#1, pathogenic mutant BRCA1/2, 48 hours
Source text: as §1, §2

[3] = tested on: PD-OVCA#41 (mutBRCA2: c. 3707dupA); assay: Growth inhibition, MTS assay, PD-OVCA#41; type: cell-based, human; conditions: Homo sapiens, PD-OVCA#41, benign mutant BRCA1 with pathogenic mut BRCA2, 48 hours
Source text: as §1, §2

PD-OVCA#62 = assay: Growth inhibition, MTS assay, PD-OVCA#62; type: cell-based, human; conditions: Homo sapiens, PD-OVCA#62, wild-type BRCA1/2, 48 hours
Source text: as §1, §2

[4] = tested on: breast cancer cells (T47D, MCF-7, MDA-MB-231, MDA-MB-468, SK-BR-3 and HCC1937); assay: Growth inhibition, panel of breast cancer cells; type: cell-based; conditions: Homo sapiens, range over T47D, 48 hours
Experimental: (§3) In an embodiment, the activity of COMP compound was tested in an array of human normal and cancer cell lines (Table 2, FIG. 2).
as §1, §2

[5] = tested on: ovarian and endocervical cancer cells (OCVAR, SKOV-3, SK-BR-3, IGROV-1 and HeLa); assay: Growth inhibition, panel of ovarian and endocervical cancer cells; type: cell-based; conditions: Homo sapiens, range over OCVAR, 48 hours
Experimental: as §3, §1, §2

[6] = tested on: patient-derived ovarian cancer cells; assay: Growth inhibition, patient-derived ovarian cancer cells; type: cell-based; conditions: Homo sapiens; range over PD-OVCA cells; MTS, 48 hours
Experimental: as §3, §1, §2

HCC1937 mammospheres = assay: 3D-mammosphere model; type: cell-based, human
Experimental: FIG. 5 illustrates the effect of COMP on (A-B) HCC1937 mammosphere formation after 72 hours of treatment with COMP; treatment was performed at seeding time of HCC1937 cells or at (C-D) three-day-old HCC1937 mammospheres for up to 11 days of treatment. FIG. 5A and FIG. 5C are representative images (scale bar=50 μm, 100× magnification).

[7] = tested on: triple-negative breast cancer and ovarian cancer cells; assay: Cell cycle progression by flow cytometry (propidium iodide); type: cell-based, human; conditions: MDA-MB-231 cells, 6 and 12 μM, 48 hours
Experimental: Cell cycle phases were analysed by flow cytometry using propidium iodide (PI) and quantified using the FlowJo software. Apoptosis and ROS were analysed by flow cytometry using FITC-Annexin V/PI and 2′,7′-dichlorodihydrofluorescein diacetate (H2DCFDA) respectively.
In an embodiment, the COMP compound modulated the expression of key proteins involved in homologous DNA repair, proliferation, chemoresistance, induced cell cycle arrest, apoptosis and ROS generation, in triple-negative breast cancer and ovarian cancer cells.

[8] = tested on: MDA-MB-231, HCC1937 and IGROV-1 cells; assay: DNA damage by comet assay; type: cell-based, human; conditions: 6 μM and 12 μM, 48 hours
Experimental: FIG. 8 illustrates the effect of 6 and 12 μM COMP on triple-negative breast cancer and ovarian cancer cells' DNA damage after 48 hours of treatment, measured by comet assay. FIG. 8A are representative images (scale bar=20 μm; 200× magnification).
(§4) In an embodiment, COMP decreased homologous recombination DNA repair and disrupted the BRCA1-BARD1 interaction.

MCF7 DR-GFP cells = assay: Chromosomal DR-GFP homologous recombination assay; type: cell-based, human; conditions: 2 μM and 6 μM, 48 hours
Experimental: FIG. 9 illustrates the effect of 2 and 6 μM COMP after 48 hours of treatment on homologous recombination activity in MCF7 DR-GFP cells using the chromosomal DR-GFP assay. After 72 hours of double strand breaks induction, MCF7 DR-GFP cells were analysed by flow cytometry to quantify the percentage of GFP-positive cells.
as §4

HCC1937 cells = assay: Wound healing assay (cell migration); type: cell-based, human; conditions: 1.9 μM
Experimental: FIG. 12 illustrates the prevention of HCC1937 cells migration by COMP. Confluent cells were treated with 1.9 μM COMP or DMSO and observed at different time-points in the wound healing assay (scale bar=50 μm and magnification=100×).
In an embodiment, COMP prevented cell migration of triple-negative breast cancer cells. The effect of COMP on the migration ability of HCC1937 cells was also studied.

IC50 (SK-MEL-5): 5.65 ± 0.95 µM | IC50 [4]: 4.4 to 12 µM | IC50 [5]: 4.6 to 13.9 µM | IC50 [6]: 2.68 to 15.1 µM
SMILES: CC[C@H]1CN(C)C2Cc3c([nH]c4ccccc34)/C(=N/Nc3ccc(Br)cn3)C[C@@H]1[C@@H]2C(=O)OC [COMP, methyl (5R,6S,14S,E)-8-(2-(5-bromopyridin-2-yl) hydrazineylidene)-5-ethyl-3-methyl-2,3,4,5,6,7,8,9-octahydro-1H-2,6-methanoazecino [5,4-b]indole-14-carboxylate]
IC50 ([1]; IGROV-1, mutant BRCA1/2, 48 hours): 4.6 ± 1.5 µM | IC50 ([1]; Igrov-1, BRCA1 mutant, 48 hours (second Table 2)): 4.6 µM | IC50 [2]: 2700 ± 600 nM | IC50 [3]: 14.1 ± 0.9 µM | IC50 (PD-OVCA#62): 14.2 ± 2.9 µM | mammosphere growth in three-day old spheroids (HCC1937 mammospheres; 6 μM and 12 μM, up to 11 days): markedly reduced | mammosphere (spheroids) formation (HCC1937 mammospheres; 6 μM, added upon seeding of HCC1937 cells, 72 hours): complete abolishment of spheroids formation | mammosphere integrity in three-day old spheroids (HCC1937 mammospheres; 12 μM, up to 11 days): triggering mammosphere disintegration | cell cycle arrest phase [7]: cell cycle arrest at G0/G1- | percentage of comet-positive cells (tail DNA, tail moment) [8]: significantly increased | homologous recombination DNA repair capacity (GFP-positive cells) (MCF7 DR-GFP cells): marked reduction | wound closure (HCC1937 cells): significantly reduced the wound closure
